Measured values reported in patent US20070088021A1, “4-haloisoquinoline derivative and drug containing the same” (priority 2005, published 2007).
Structures can show the parent of a compound that is named as a salt.

Columns and labels:
Rho kinase [1] = conditions: order of magnitude stated in background; cited from earlier work
Rho kinase [2] = target: T1, Rho kinase; test: Rho-kinase assay (measurement of kinase inhibitory activity); format: biochemical; conditions: method of Patent Document 1
T1 construct: IC50 for Rho kinase
Experimental: A Rho-kinase assay was performed according to the method described in Patent Document 1, and the 50% inhibitory concentration (hereinafter referred to as the “IC50 value”) for Rho kinase was calculated.

SMILES	50% inhibitory concentration (IC50) for Rho kinase (Rho kinase [1])	IC50 (Rho kinase [2])
Cc1cncc2cccc(S(=O)(=O)N3CCCNC[C@@H]3C)c12.Cl [(S)-(+)-hexahydro-2-methyl-1-(4-methyl-5-isoquinolinesulfonyl)-1H-1,4-diazepine hydrochloride]	1/100	–
C[C@H]1CNCCCN1S(=O)(=O)c1cccc2cncc(Br)c12 [Dihydrochloride of Compound (1) X = Br, 2-(S)-1-(4-bromoisoquinoline-5-sulfonyl)-2-methylhomopiperazine]	–	0.0058 µM
CC1CNCCCN1S(=O)(=O)c1cccc2cncc(Cl)c12 (centres unmarked) [Dihydrochloride of Compound (1) X = Cl]	–	0.0258 µM
C[C@H]1CNCCCN1S(=O)(=O)c1cccc2cncc(F)c12 [Dihydrochloride of Compound (1) X = F]	–	0.085 µM
Cc1cncc2cccc(S(=O)(=O)N3CCCNC[C@@H]3C)c12 [Reference Compound B, (S)-(+)-hexahydro-2-methyl-1-(4-methyl-5-isoquinolinesulfonyl)-1H-1,4-diazepine hydrochloride, reference compound]	–	0.012 µM
